Results reported in patent US20150352108A1, “AMINO-PYRIMIDINE COMPOUNDS AS INHIBITORS OF TBK1 AND/OR IKK EPSILON” (Alzheimer's Institute of America, priority 2009, published 2015).

Key:
[1] = molecular target: T1, IKKε (Homo sapiens, UniProt Q14164); experiment: In-vitro IKKε kinase assay ([γ33]ATP filter-plate); assay type: biochemical; conditions: text bins; read-out: IC50 for inhibition of the kinase activity of IKKε
T1 construct: His-tag; made in house; host or cells: Sf9 insect cells
T1 sequence (Q14164 1-716): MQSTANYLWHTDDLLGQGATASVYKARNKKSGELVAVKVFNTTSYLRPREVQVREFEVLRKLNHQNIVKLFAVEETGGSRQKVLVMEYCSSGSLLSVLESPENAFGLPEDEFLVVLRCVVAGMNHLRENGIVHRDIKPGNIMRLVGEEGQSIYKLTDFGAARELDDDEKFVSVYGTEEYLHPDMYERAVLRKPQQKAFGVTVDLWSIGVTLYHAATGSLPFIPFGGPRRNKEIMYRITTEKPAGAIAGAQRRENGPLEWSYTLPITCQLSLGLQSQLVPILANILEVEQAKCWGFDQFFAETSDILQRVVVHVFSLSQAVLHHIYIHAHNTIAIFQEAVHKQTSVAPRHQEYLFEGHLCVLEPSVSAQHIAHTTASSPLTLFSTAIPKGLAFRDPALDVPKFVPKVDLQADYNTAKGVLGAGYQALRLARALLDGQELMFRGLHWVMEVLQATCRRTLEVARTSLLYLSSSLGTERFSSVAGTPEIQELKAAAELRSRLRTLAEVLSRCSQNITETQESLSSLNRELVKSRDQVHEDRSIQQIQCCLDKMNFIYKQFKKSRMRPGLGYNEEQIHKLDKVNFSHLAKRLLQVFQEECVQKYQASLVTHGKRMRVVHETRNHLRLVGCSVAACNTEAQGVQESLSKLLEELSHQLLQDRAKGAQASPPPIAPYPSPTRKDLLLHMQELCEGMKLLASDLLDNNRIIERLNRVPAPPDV
In short: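 Phosphorylation of casein or myelin basic protein was counted by P-81 filter capture after 30-45 min reactions stopped with phosphoric acid, with counts normalized to DMSO after background subtraction. ATP was twice Km: 60 μM for TBK1 and 32 μM for IKKε, plus [γ33]ATP. Sf9-expressed His-tag enzymes were used at normal/sensitized levels of 0.1/0.02 μg/ml (TBK1) and 0.1/0.015 μg/ml (IKKε).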

[2] = tested on: IKKε-mediated phosphorylation of IRF3; experiment: In-situ phosphorylation of IRF3 (pIRF3 Ser396 ELISA) in HEK293T cells cotransfected with IRF3 and IKKε; assay type: cell-based; conditions: Homo sapiens, HEK-293T; HEK293T cells, 20 hours, text bins; read-out: IC50 for inhibition of the in-situ IKKε-mediated phosphorylation of IRF3
Experimental: HEK293T cells were cotransfected in a 10-cm dish with IRF3 and IKKε expression plasmids using Lipofectamine 2000 (Invitrogen, Carlsbad, Calif.). The following day, cells were replated at 20,000 per well in 96-well plates and treated with test compounds (compounds according to Formula I) for 20 hours. Cell lysates were prepared and analyzed using an ELISA for phospho-Ser396 (anti-IRF3 capture antibody, Santa Cruz Biotechnology, Inc., Santa Cruz, Calif.; anti-p-Ser396 IRF3 detection antibody, Cell Signaling, Danvers, Mass.). pIRF3 levels in compound treated cells were normalized to DMSO treated cells (no compound). Cell viability was assayed in a parallel set of plates to monitor cytotoxic effects of the test compounds (CellTiter-Glo, Promega, Inc., Madison, Wis.). TBK1 activity was tested by Western blotting using a phospho-specific IRF7 antibody. Similar to above, HEK293T cells were transfected with IRF7 and TBK1 expression plasmids. Cells were seeded in 12-well plates at 150,000 per well and treated overnight with test compounds. Protein lysates were prepared and processed for Western blotting followed by detection using a phosphor-Ser477/Ser479 IRF7 antibody (BD Biosciences, San Jose, Calif.)

Row | SMILES | IC50 [1] [µM] | IC50 [2] [µM]
1 | N#Cc1cc(-c2ccnc(Nc3ccc(-n4cncn4)cc3)n2)ccc1OC1CCOCC1 [compound 580, 2-(Tetrahydro-2H-pyran-4-yloxy)-5-(2-{[4-(1H-1,2,4-triazol-1-yl)phenyl]amino}pyrimidin-4-yl)benzonitrile] | < 0.005 | 0.25 to 0.5
2 | N#Cc1cc(-c2ccnc(Nc3ccc4[nH]cnc4c3)n2)ccc1OC1CCOCC1 [compound 583, 5-[2-(1H-Benzimidazol-5-ylamino)pyrimidin-4-yl]-2-(tetrahydro-2H-pyran-4-yloxy)benzonitrile] | < 0.005 | 0.25 to 0.5
3 | CN(C)C1CCN(c2cccc(Nc3nccc(-c4ccc(OC5CCOCC5)c(C#N)c4)n3)c2)C1 (stereo not drawn) [compound 591, 5-[2-({3-[3-(Dimethylamino)pyrrolidin-1-yl]phenyl}amino)pyrimidin-4-yl]-2-(tetrahydro-2H-pyran-4-yloxy)benzonitrile] | < 0.005 | 0.1 to 0.25
4 | COc1cc(Nc2nccc(-c3ccc(OCC(C)C)c(C#N)c3)n2)ccc1CN1CC(OC)C1 [compound 600, 5-[2-({3-Methoxy-4-[(3-methoxyazetidin-1-yl)methyl]phenyl}amino)pyrimidin-4-yl]-2-(2-methylpropoxy) benzonitrile] | 0.005 to 0.05 | 0.1 to 0.25
5 | N#Cc1cc(-c2ccnc(Nc3ccc(-n4cnnc4)cc3)n2)ccc1OC1CCOCC1 [compound 607, 2-(Tetrahydro-2H-pyran-4-yloxy)-5-(2-{[4-(4H-1,2,4-triazol-4-yl)phenyl]amino}pyrimidin-4-yl)benzonitrile] | < 0.005 | 0.1 to 0.25
6 | Cc1nccn1Cc1ccc(Nc2nccc(-c3ccc(OC4CCOCC4)c(C#N)c3)n2)cc1 [compound 609, 5-[2-({4-[(2-Methyl-1H-imidazol-1-yl)methyl]phenyl}amino)pyrimidin-4-yl]-2-(tetrahydro-2H-pyran-4-yloxy)benzonitrile] | < 0.005 | < 0.1
7 | N#Cc1cc(-c2ccnc(Nc3ccc(Cn4cncn4)cc3)n2)ccc1OC1CCOCC1 [compound 624, 2-(Tetrahydro-2H-pyran-4-yloxy)-5-(2-{[4-(1H-1,2,4-triazol-1-ylmethyl)phenyl]amino}pyrimidin-4-yl)benzonitrile] | < 0.005 | < 0.1
8 | Cc1ccc(Nc2nccc(-c3ccc(OC4CCOCC4)c(C#N)c3)n2)cc1NCCN(C)C [compound 628, 5-[2-[[3-(2-dimethylamino-ethylamino)-4-methyl-phenyl]amino}pyrimidin-4-yl]-2-tetrahydropyran-4-yloxy-benzonitrile] | < 0.005 | < 0.1
9 | N#Cc1cc(-c2ccnc(Nc3ccc(Cn4cnnn4)cc3)n2)ccc1OC1CCOCC1 [compound 629, 2-(Tetrahydro-2H-pyran-4-yloxy)-5-(2-{[4-(1H-tetrazol-1-ylmethyl)phenyl]amino}pyrimidin-4-yl)benzonitrile] | < 0.005 | < 0.1
10 | N#Cc1cc(-c2ccnc(Nc3cccc(CN4CCOCC4)c3)n2)ccc1OC1CCOCC1 [compound 638, 5-(2-{[3-(Morpholin-4-ylmethyl)phenyl]amino}pyrimidin-4-yl)-2-(tetrahydro-2H-pyran-4-yloxy)benzonitrile] | < 0.005 | < 0.1
11 | Cc1ccc(Nc2nccc(-c3ccc(O[C@@H]4CCN(C(=O)CO)C4)c(C#N)c3)n2)cc1C [compound 643, 5-{2-[(3,4-Dimethylphenyl)amino]pyrimidin-4-yl}-2-{[(3R)-1-(hydroxyacetyl)pyrrolidin-3-yl]oxy}benzonitrile] | < 0.005 | 0.25 to 0.5
12 | COCC(=O)Nc1cccc(Nc2nccc(-c3ccc(OC4CCOCC4)c(C#N)c3)n2)c1 [compound 647, N-[3-({4-[3-Cyano-4-(tetrahydro-2H-pyran-4-yloxy)phenyl]pyrimidin-2-yl}amino)phenyl]-2-methoxyacetamide] | < 0.005 | < 0.1
13 | CC(=O)Nc1cccc(Nc2nccc(-c3ccc(OC4CCOCC4)c(C#N)c3)n2)c1 [compound 656, N-[3-({4-[3-Cyano-4-(tetrahydro-2H-pyran-4-yloxy)phenyl]pyrimidin-2-yl}amino)phenyl] acetamide] | < 0.005 | < 0.1
14 | COC1CN(Cc2ccc(Nc3nccc(-c4ccc(O[C@@H]5CCN(C(=O)CO)C5)c(C#N)c4)n3)cc2)C1 [compound 658, 2-{[(3R)-1-(Hydroxyacetyl)pyrrolidin-3-yl]oxy}-5-[2-({4-[(3-methoxyazetidin-1-yl)methyl]phenyl}amino)pyrimidin-4-yl]benzonitrile] | < 0.005 | 0.25 to 0.5
15 | C[C@@H](O)C(=O)Nc1cccc(Nc2nccc(-c3ccc(OC4CCOCC4)c(C#N)c3)n2)c1 [compound 659, (2R)-N-[3-({4-[3-Cyano-4-(tetrahydro-2H-pyran-4-yloxy)phenyl]pyrimidin-2-yl}amino)phenyl]-2-hydroxypropanamide] | < 0.005 | 0.1 to 0.25
16 | CN(C)CCN(C)c1cccc(Nc2nccc(-c3ccc(OC4CCOCC4)c(C#N)c3)n2)c1 [compound 661] | < 0.005 | < 0.1
17 | Cc1cn(Cc2cccc(Nc3nccc(-c4ccc(O[C@@H]5CCN(C(=O)CO)C5)c(C#N)c4)n3)c2)cn1 [compound 662, 2-{[(3R)-1-(Hydroxyacetyl)pyrrolidin-3-yl]oxy}-5-[2-({3-[(4-methyl-1H-imidazol-1-yl)methyl]phenyl}amino)pyrimidin-4-yl]benzonitrile] | < 0.005 | < 0.1

The remaining lines, values ahead:

Row | IC50 [1] [µM] | IC50 [2] [µM] | SMILES
18 | < 0.005 | < 0.1 | N#Cc1cc(-c2nc(Nc3ccc(N4CCOCC4)cc3)ncc2F)ccc1OC1CCOCC1 [compound 592, 5-(5-Fluoro-2-{[4-(morpholin-4-yl)phenyl]amino}pyrimidin-4-yl)-2-(tetrahydro-2H-pyran-4-yloxy)benzonitrile]
19 | < 0.005 | < 0.1 | N#Cc1cc(-c2ccnc(Nc3ccc(S(=O)(=O)Nc4ccccn4)cc3)n2)ccc1OC1CCOCC1 [compound 593, 4-({4-[3-Cyano-4-(tetrahydro-2H-pyran-4-yloxy)phenyl]pyrimidin-2-yl}amino)-N-(pyridin-2-yl) benzenesulfonamide]
20 | < 0.005 | 0.25 to 0.5 | N#Cc1cc(-c2ccnc(Nc3ccc(/C=C/CN4CCOCC4)cc3)n2)ccc1OC1CCOCC1 [compound 614, 5-[2-({4-[(1E)-3-(Morpholin-4-yl)prop-1-en-1-yl]phenyl}amino)pyrimidin-4-yl]-2-(tetrahydro-2H-pyran-4-yloxy)benzonitrile]
21 | < 0.005 | 0.1 to 0.25 | COc1cc(Nc2nccc(-c3ccc(OCC4CC4)c(C#N)c3)n2)ccc1CN1CC(OC)C1 [compound 617, 2-(Cyclopropylmethoxy)-5-[2-({3-methoxy-4-[(3-methoxyazetidin-1-yl)methyl]phenyl}amino)pyrimidin-4-yl]benzonitrile]
22 | < 0.005 | < 0.1 | CN(C)Cc1cccc(Nc2nccc(-c3ccc(O[C@@H]4CCN(C(=O)CO)C4)c(C#N)c3)n2)c1 [compound 642, 5-[2-({3-[(Dimethylamino)methyl]phenyl}amino)pyrimidin-4-yl]-2-{[(3R)-1-(hydroxyacetyl)pyrrolidin-3-yl]oxy}benzonitrile]
23 | < 0.005 | < 0.1 | Cc1cn(Cc2cccc(Nc3nccc(-c4ccc(OC5CCOCC5)c(C#N)c4)n3)c2)cn1 [compound 653, 5-[2-({3-[(4-Methyl-1H-imidazol-1-yl)methyl]phenyl}amino)pyrimidin-4-yl]-2-(tetrahydro-2H-pyran-4-yloxy)benzonitrile]
24 | < 0.005 | 0.25 to 0.5 | C[C@H](O)C(=O)N1CCC(Oc2ccc(-c3ccnc(Nc4ccc(F)c(OCCN)c4)n3)cc2C#N)CC1 [compound 655]
